Laboratory results published in US20250313555A1, “2-SUBSTITUTED THIAZOLE AND BENZOTHIAZOLE COMPOSITIONS AND METHODS AS DUX4 INHIBITORS” (ALTAY THERAPEUTICS, INC., priority 2022, published 2025).

What was measured:
Assay type in all cases: cell-based
[1] = Cell cytotoxicity 50 assay (CC50), MB200 cells, cell titer glo; conditions: human
Description: Cell Cytotoxicity 50 Assay Protocol (CC50) MB200 cells were grown until 80% confluent in F10 media supplemented with rhFGF basic (10 ng/ml), 15% fetal bovine serum, 1% penicillin streptomycin, 1% amphotericin B, and 1 μM dexamethasone. Adherent MB200 cells growing on 10 cm plate were then trypsinized with 1 ml of trypsin. Once the cells detached from the plate, F10 media (10 mL) was added, and the cells were strained through a 70 μm cell strainer. The cells were counted using a mixture of 10 μL cell suspension with 10 μL of trypan blue. Once the total number of cells were counted, a dilution of 200 k/mL was prepared, and the cells were seeded with 10 k cells/well in a 96-well plate in triplicate, making sure to avoid seeding cells in the edges of the plate to avoid edge effects. Using a multichannel pipet, the 200 k/mL cell dilution (50 μL/well) was added into wells B2-B11, C2-C11, and D2-D11 in triplicate. Into a deep well block (DWB), the media for the appropriate cell line (450 μL/well) was added into wells 1-10. Into DWB well 2, 10 mM of drug solution (13.5 μL) was added, followed by an additional volume of the medium (225 μL). The well was pipetted up/down four times. A portion (225 μL) was transferred to well 3, and this process was repeated up to well 10. Using a multichannel pipet, a smaller portion (50 μL/well) was removed from all wells in the DWB and then dispensed on top of the cells in each corresponding row. After adding the drug, the plate was incubated at 37° C. for 72 h. Using a multi-channel pipet, pre-warmed cell titer glo reagent (Promega) (100 μL) was added into every well. After 5 minutes, the total luminescence was measured with a luminometer. CC50 was determined with GraphPad prism template.

[2] = Cell cytotoxicity 50 assay (CC50), HEK cells; conditions: human
Description: Cell Cytotoxicity 50 Assay Protocol (CC50) Into a deep well block (DWB), the media for the appropriate cell line (450 μL/well) was added into wells 1-10. Into DWB well 2, 10 mM of drug solution (13.5 μL) was added, followed by an additional volume of the medium (225 μL). The well was pipetted up/down four times. A portion (225 μL) was transferred to well 3, and this process was repeated up to well 10. Using a multichannel pipet, a smaller portion (50 μL/well) was removed from all wells in the DWB and then dispensed on top of the cells in each corresponding row. After adding the drug, the plate was incubated at 37° C. for 72 h. Using a multi-channel pipet, pre-warmed cell titer glo reagent (Promega) (100 μL) was added into every well. After 5 minutes, the total luminescence was measured with a luminometer. CC50 was determined with GraphPad prism template.

MBD3L2 RNA = assay: RNA isolation and qPCR to determine MBD3L2 RNA levels in FSHD cells; conditions: 48 hrs
Description: Protocol for RNA Isolation and qPCR to Determine MBD3L2 RNA Levels The protocol describes the process of isolating RNA from cultured cells, converting the RNA to complementary DNA (cDNA), and measuring target gene expression using a quantitative polymerase chain reaction (qPCR). The seed FSHD cells were dispensed into a six-well dish. One day after seeding, the DUX4 inhibitor (11 μM or 3.6 μM/well) was added to the cells. After another 48 hrs, the old media was removed from the cells. The cells were washed with 2 mL of warm phosphate buffered saline (PBS). The PBS was aspirated, and the cells were lysed in each well with 350 μL of RLT buffer+3.5 μL of beta-mercaptoethanol (BME). The lysates were added to fresh, RNAse-free, labeled Eppendorf tubes. The cells were then physically disrupted for […] at level 4 of the bead disrupter to ensure the release of the RNA. The RNA was collected according to standard procedures (i.e., Qiagen kit instructions) as discussed below. The RNA concentrations were standardized to […]. In a PCR tube, RNA (2 μg) in a new Eppendorf tube was diluted with RNase-free water to a 9.5 μL final volume of […] RNA. DNase was used to remove any DNA contamination. A DNase Master Mix was prepared from 1.5 μL/reaction DNase solution (1 unit/μL, Promega), 3 μL/reaction 5× RT buffer (i.e., 250 mM Tris-HCl (pH 8.3), 375 mM KCl, 15 mM MgCl2, and 500 μl 0.1 M DTT; Promega MMLV), and 1 μL/reaction RNase inhibitor solution (RNasin, 40 units/μL, Promega). The DNase Master Mix was added to the standardized RNA samples (5.5 μL/sample). The samples were mixed by agitation and briefly spun down by centrifuge. The samples were heated to 37° C. for 60 min, 80° C. for 5 min, and then cooled to 4° C. The samples were stored on ice until the addition of the next reagents. An RT Reaction Master Mix was prepared from 5 μL/reaction 5× RT buffer, 2 μL/reaction dNTP solution (2.5 mM in each nucleotide), 1 μL/reaction RNase inhibitor solution (RNasin, 40 units/μL, Promega), 1.6 μL/reaction M-MLV reverse transcriptase (200 units/μL, Promega), and 13.4 μL/reaction deionized, RNase-free water. The RT Reaction Master Mix was cooled on ice until use. A 50 μM solution of Random Primer 6 random hexanucleotides (2 μL) was added to each sample. The samples were mixed by agitation and briefly spun down by centrifuge. The samples were heated to 70° C. for 5 min and then cooled to 4° C. The RT Reaction Master Mix (23 μL) was added to each sample. The samples were mixed by agitation and briefly spun down by centrifuge. To convert the RNA to cDNA, the samples were heated to 42° C. for 60 min, 95° C. for 5 min, and then cooled to 4° C. The cDNA product mixture was diluted 5:1 with deionized water (40 μL+160 μL). The samples were run in triplicate, with a methyl-CpG-binding protein 3-like 2 (MBD3L2) target primer and a eukaryotic translation elongation factor 1-alpha (EEF1A) control primer. An qPCR Master Mix was prepared for each primer and stored on ice (4° C.) until use. The qPCR Master Mix included 10 μL/reaction SYBR Green Mix (2×) (ThermoFisher), 1 μL/reaction of the primer mix (i.e., the MBD3L2 PCR Primer mix or the EEF1A Primer mix), and 4 μL/reaction deionized, RNase-free water. To set up the qPCR plate, 15 μL of the appropriate qPCR Master Mix was added to the appropriate wells for each target/primer. After all the targets/primers have been added to the wells, 5 μL of the sample was added to the corresponding wells so that each well is 20 μL total. The plate was covered with a clear sheet. An qPCR run was set up (QuantStudio 5) with the following cycle: […]

Structure (SMILES) | CC50 at 72 h [1] | CC50 at 72 h [2] | qPCR MBD3L2 Inhib at 11 µM (MBD3L2 RNA)
CC(=O)NCCCC(=O)NCc1ccc(-c2nc3ccccc3s2)cc1 [Compound 105] | > 10 µM | > 10 µM | YES
O=C(CCCN1CCCC1=O)NCc1ccc(-c2nc3ccccc3s2)cc1 [Compound 109] | > 10 µM | > 10 µM | YES
CC(=O)NCCCC(=O)Nc1ccc(CCc2nc3ccccc3s2)cc1 [Compound 174] | > 10 µM | > 10 µM | YES
O=C(CCCc1cccnc1)Nc1ccc(-c2nc3ccccc3s2)cc1 [Compound 52] | > 10 µM | > 10 µM | YES
O=C(CCCCc1cccnc1)Nc1ccc(-c2nc3ccccc3s2)cc1 [Compound 140] | > 10 µM | > 10 µM | YES
O=C(CCCc1cccnc1)Nc1ccc(Cc2nc3ccccc3s2)cc1 [Compound 60] | > 10 µM | > 10 µM | YES
CC(=O)NCCC(=O)Nc1ccc(-c2nc3ccccc3s2)cc1 [Compound 38] | > 10 µM | > 10 µM | YES
O=C(CCN1CCCC1=O)Nc1ccc(-c2nc3ccccc3s2)cc1 [Compound 18] | > 10 µM | > 10 µM | YES
CC(=O)OCCCC(=O)Nc1ccc(-c2nc3ccc(C)cc3s2)cc1 [Compound 36] | > 10 µM | 1 to 10 µM | YES
O=C(CCCc1cccnc1)Nc1ccc(-c2nc3ccccc3s2)o1 [Compound 75] | > 10 µM | > 10 µM | YES
CC(=O)NCCCC(=O)Nc1ccc(-c2nc3ccccc3s2)cn1 [Compound 49] | > 10 µM | > 10 µM | YES
CC(=O)NC(C)(C)/C=C/C(=O)Nc1ccc(-c2nc3ccccc3s2)cc1 [Compound 104] | > 10 µM | > 10 µM | YES
CC(=O)NCCCC(=O)N(C)c1ccc(-c2nc3cc(F)ccc3s2)cc1 [Compound 145] | > 10 µM | > 10 µM | YES
CC(=O)NCCNC(=O)Cc1ccc(-c2nc3cc(F)ccc3s2)cc1 [Compound 111] | > 10 µM | > 10 µM | YES
